Key:
Assay in all cases: Broth dilution MIC
Format in all cases: cell-based
Conditions in all cases: Mueller-Hinton broth, 18 hours at 35° C.
[1] = test system: S. marcescens GC 4077
Procedure: (§1) The in vitro antibacterial activity of AA-896-A1, AA-896-A2, AA-896-A3, AA-896-A4, AA-896-A5, AA-896-B1, AA-896-B2, AA-896-B3, AA-896-B4, AA-896-B5, AA-896-B6, AA-896-B7, AA-896-C1, AA-896-C2, AA-896-C3, AA-896-C4, AA-896-D1, AA896-D2 and AA-896-D3 is determined against a spectrum of Gram-positive and Gram-negative bacteria by a standard broth dilution method. Serial dilution of the compounds are made in Mueller-Hinton broth and inoculated with a bacterial suspension. The lowest concentration of compound that inhibited the growth of a bacterial strain after 18 hours of incubation at 35° C. is reported as the minimal inhibitory concentration (MIC) for that strain.

[2] = test system: S. aureus GC 1131
Procedure: as §1

[3] = test system: E. faecalis GC 4555
Procedure: as §1

[4] = test system: S. aureus GC 4536
Procedure: as §1

[5] = test system: CNS GC 4537
Procedure: as §1

[6] = test system: CNS GC 4538
Procedure: as §1

[7] = test system: P. aeruginosa GC 4532
Procedure: as §1

[8] = test system: E. cloacae GC 3783
Procedure: as §1

[9] = test system: CNS GC 4547
Procedure: as §1

[10] = test system: S. aureus GC 2216
Procedure: as §1

[11] = test system: E. coli GC 4559
Procedure: as §1

[12] = test system: E. faecalis GC 842
Procedure: as §1

[13] = test system: M. morganii GC 4531
Procedure: as §1

[14] = test system: E. coli GC 4560
Procedure: as §1

[15] = test system: E. coli GC 2203
Procedure: as §1

[16] = test system: P. rettgeri GC 4530
Procedure: as §1

[17] = test system: E. coli GC 3226
Procedure: as §1

[18] = test system: K. pneumoniae GC 4534
Procedure: as §1

[19] = test system: P. aeruginosa GC 2214
Procedure: as §1

[20] = test system: E. faecalis GC 242
Procedure: as §1

Antimicrobial Activity (MIC) [1] | Antimicrobial Activity (MIC) [2] | Antimicrobial Activity (MIC) [3] | Antimicrobial Activity (MIC) [4] | Antimicrobial Activity (MIC) [5] | Antimicrobial Activity (MIC) [6] | Antimicrobial Activity (MIC) [7] | Antimicrobial Activity (MIC) [8] | Antimicrobial Activity (MIC) [9] | Antimicrobial Activity (MIC) [10] | Antimicrobial Activity (MIC) [11] | Antimicrobial Activity (MIC) [12] | Antimicrobial Activity (MIC) [13] | Antimicrobial Activity (MIC) [14] | Antimicrobial Activity (MIC) [15] | Antimicrobial Activity (MIC) [16] | Antimicrobial Activity (MIC) [17] | Antimicrobial Activity (MIC) [18] | Antimicrobial Activity (MIC) [19] | Antimicrobial Activity (MIC) [20] | Compound
>32 µg/mL | >32 µg/mL | >32 µg/mL | >32 µg/mL | >32 µg/mL | >32 µg/mL | >32 µg/mL | 16 µg/mL | >32 µg/mL | >32 µg/mL | >32 µg/mL | >32 µg/mL | >32 µg/mL | 0.06 µg/mL | >32 µg/mL | >32 µg/mL | 32 µg/mL | >32 µg/mL | >32 µg/mL | >32 µg/mL | CCC(C)CCCCC(=O)OC(C(C)C)C(NC(=O)C(NC(=O)NC(C(=O)O)C(C)C)C1CCNC(=N)N1)C(=O)NCCCNC(C(=O)O)C(O[C@@H]1O[C@H](CN)[C@@H](O)[C@H]1OC)C1OC(n2ccc(=O)[nH]c2=O)C(O)C1O (stereo partly drawn) [AA-896-B3, 5-O-[5-Amino-5-deoxy-2-O-methyl-β-D-ribofuranosyl]-6-[[3-[2-[2-[[(1-carboxy-2-methyl-propyl)carbamoyl]amino]-2-(hexahydro-2-iminopyrimidin-4-yl)acetamido]-4-methyl-3-[(6-methyloctanoyl)oxy]pentanamido]propyl]amino]-1,6-dideoxy-1-(3,4-dihydro-2,4-dioxopyrimidin-1(2H)-yl)-β-D-heptofuranuronic acid]
>64 µg/mL | 64 µg/mL | 64 µg/mL | 64 µg/mL | 64 µg/mL | 32 µg/mL | 64 µg/mL | 8 µg/mL | >64 µg/mL | 64 µg/mL | 8 µg/mL | >64 µg/mL | >64 µg/mL | <=0.06 μg/ml | 32 µg/mL | >64 µg/mL | 64 µg/mL | 16 µg/mL | 32 µg/mL | >64 µg/mL | COC1C(OC(C(NCCCNC(=O)C(NC(=O)C(NC(=O)NC(C(=O)O)C(C)C)C2CCNC(=N)N2)C(OC(=O)CCCCCC(C)C)C(C)C)C(=O)O)C2OC(n3ccc(=O)[nH]c3=O)C(O)C2O)OC(CN)C1O [AA-896-B4, 5-O-[5-Amino-5-deoxy-2-O-methyl-β-D-ribofuranosyl]-6-[[3-[2-[2-[[(1-carboxy-2-methyl-propyl)carbamoyl]amino]-2-(hexahydro-2-iminopyrimidin-4-yl)acetamido]-4-methyl-3-[(7-methyloctanoyl)oxy]pentanamido]propyl]amino]-1,6-dideoxy-1-(3,4-dihydro-2,4-dioxopyrimidin-1(2H)-yl)-β-D-heptofuranuronic acid]
>32 µg/mL | >32 µg/mL | >32 µg/mL | >32 µg/mL | >32 µg/mL | >32 µg/mL | >32 µg/mL | 32 µg/mL | >32 µg/mL | >32 µg/mL | >32 µg/mL | >32 µg/mL | >32 µg/mL | 1 µg/mL | 32 µg/mL | >32 µg/mL | 32 µg/mL | >32 µg/mL | 32 µg/mL | >32 µg/mL | COC1C(OC(C(NCCCNC(=O)C(NC(=O)C(NC(=O)NC(C(=O)O)C(C)C)C2CCNC(=N)N2)C(O)C(C)C)C(=O)O)C2OC(n3ccc(=O)[nH]c3=O)C(O)C2O)OC(CN)C1O [AA-896-C1, 5-O-[5-Amino-5-deoxy-2-O-methyl-β-D-ribofuranosyl]-6-[[3-[2-[2-[[(1-carboxy-2-methyl-propyl)carbamoyl]amino]-2-(hexahydro-2-iminopyrimidin-4-yl)acetamido]-3-hydroxy-4-methylpentanamido]propyl]amino]-1,6-dideoxy-1-(3,4-dihydro-2,4-dioxopyrimidin-1(2H)-yl)-β-D-heptofuranuronic acid]
>32 µg/mL | >32 µg/mL | >32 µg/mL | >32 µg/mL | >32 µg/mL | >32 µg/mL | 32 µg/mL | 16 µg/mL | >32 µg/mL | >32 µg/mL | >32 µg/mL | >32 µg/mL | >32 µg/mL | 2 µg/mL | 16 µg/mL | >32 µg/mL | 16 µg/mL | >32 µg/mL | 32 µg/mL | >32 µg/mL | CC(C)C(NC(=O)NC(C(=O)NC(C(=O)NCCCNC(C(=O)O)C(O[C@@H]1O[C@H](CN)[C@@H](O)[C@H]1O)C1OC(n2ccc(=O)[nH]c2=O)C(O)C1O)C(O)C(C)C)C1CCNC(=N)N1)C(=O)O (stereo partly drawn) [AA-896-C2, 5-O-[5-Amino-5-deoxy-β-D-ribofuranosyl]-6-[[3-[2-[2-[[(1-carboxy-2-methylpropyl)-carbamoyl]amino]-2-(hexahydro-2-iminopyrimidin-4-yl)acetamido]-3-hydroxy-4-methyl-pentanamido]propyl]amino]-1,6-dideoxy-1-(3,4-dihydro-2,4-dioxopyrimidin-1(2H)-yl)-β-D-heptofuranuronic acid]

Compound | Antimicrobial Activity (MIC) [1] | Antimicrobial Activity (MIC) [2] | Antimicrobial Activity (MIC) [3] | Antimicrobial Activity (MIC) [4] | Antimicrobial Activity (MIC) [5] | Antimicrobial Activity (MIC) [6] | Antimicrobial Activity (MIC) [7] | Antimicrobial Activity (MIC) [8] | Antimicrobial Activity (MIC) [9] | Antimicrobial Activity (MIC) [10] | Antimicrobial Activity (MIC) [11] | Antimicrobial Activity (MIC) [12] | Antimicrobial Activity (MIC) [13] | Antimicrobial Activity (MIC) [14] | Antimicrobial Activity (MIC) [15] | Antimicrobial Activity (MIC) [16] | Antimicrobial Activity (MIC) [17] | Antimicrobial Activity (MIC) [18] | Antimicrobial Activity (MIC) [19] | Antimicrobial Activity (MIC) [20]
5-O-[5-Amino-5-deoxy-β-D-ribofuranosyl]-6-[[3-[3-[[13-(carbamimidoylhydroxyamino)-tridecanoyl]oxy]-2-[2-[[(1-carboxy-2-methylpropyl)carbamoyl]amino]-2-(hexahydro-2-iminopyrimidin-4-yl)acetamido]-4-methylpentanamido]propyl]amino]-1,6-dideoxy-1-(3,4-dihydro-2,4-dioxopyrimidin-1(2H)-yl)-β-D-heptofuranuronic acid [AA-896-A4] | >32 µg/mL | 8 µg/mL | 32 µg/mL | 8 µg/mL | 4 µg/mL | 2 µg/mL | 32 µg/mL | 1 µg/mL | 8 µg/mL | 4 µg/mL | 32 µg/mL | 32 µg/mL | >32 µg/mL | 0.12 µg/mL | 16 µg/mL | >32 µg/mL | 8 µg/mL | >32 µg/mL | 32 µg/mL | 32 µg/mL

Source: patent publication US7078195B2, “Antibiotics AA-896” (Wyeth Holdings Corporation, priority 2001, dated 2006)
